The numbers were not newly measured in publication PMC10952301, “Solid‐Phase Synthesis and Biological Evaluation of Peptides ADP‐Ribosylated at Histidine” (Angewandte Chemie (International Ed. in English), 2023), which cites them from elsewhere.

For the data set the following is noted: quoted without reference to compare leaving group capacity.

Regarding `c1c[nH]nn1` [1,2,3‐triazole], the pKa is listed as 9.4.
